Assays:
HCV = details: Ribavirin alone, cited from earlier work
[1] = system: HCV sub-genomic replicon in FCA 4 cells; assay type: cell-based, hepatitis C virus
Description: FCA-4 sub genomic replicon was bicistronic construct composed of the HCV IRES (nucleotides 1 to 377 of the 5′NCR); the neomycin phosphotransferase (neo) gene; the encephalomyocarditis IRES, which mediates the translation of HCV nonstructural proteins NS3 through NS5; and the 3′NCR as shown in FIG. 2. […] FCA-4 sub-genomic replicon consists of single adaptive mutation and a deletion of a serine residue at position 1176 (Guo et al, 2001).
The bicistronic RNA molecule contains the HCV IRES and a few core-coding sequences, which are followed by neomycin phosphotransferase gene (Neor). These sequences are followed by the encephalomyocarditis virus IRES placed in front of HCV sequences encoding nonstructural protein NS3 to NS5B, terminating at the HCV 3NCR.
To determine the antiviral effect against HCV, FCA 4 cells were seeded in six well plates. After 24 h, media containing 20 μM of test compound was added to the plates. Cells were incubated at 37° C. in CO2 incubator for additional 48 h. At the end of the incubation, cells were harvested, RNA was extracted and cDNA were generated by oligo dT priming. cDNA was amplified by PCR using primers specific to the 5′UTR and NS5B gene of HCV. Amplification of GAPDH mRNA served as an internal control. […]

[2] = system: HCV 3a genotype in MDBK cells; assay: Synergy with interferon-α against HCV in MDBK cells (real time Quantitative RT-PCR); assay type: cell-based, hepatitis C virus; details: with interferon-α 5 IU/well, 6 hrs pre-incubation, HCV 3a 2×10^4 copies per well, 18 hrs
Description: Surprising synergism was recorded when Compound 1 was combined with Interferon alpha. […] MDBK cells were incubated for 6 hrs with compounds and interferon alone, or combination of compound and interferon in a 96-well plat. After 6 hrs cells were infected with 2×10^4 copies of HCV 3a genotype per well and incubated for additional 18 hrs. At the end of incubation period, total RNA was extracted by Gentra kit, and the levels of HCV RNA remaining were determined, by real time Quantitative RT-PCR assay and are shown as percentage of HCV RNA survival in cells. Results are represented as the average and standard error for three independent experiments.

HCV protease = HCV protease (Hepatitis C virus genotype 1a, UniProt P26664); details: SDS-PAGE and autoradiography assay; cited from earlier work
Sequence of HCV protease (P26664 1027-1657): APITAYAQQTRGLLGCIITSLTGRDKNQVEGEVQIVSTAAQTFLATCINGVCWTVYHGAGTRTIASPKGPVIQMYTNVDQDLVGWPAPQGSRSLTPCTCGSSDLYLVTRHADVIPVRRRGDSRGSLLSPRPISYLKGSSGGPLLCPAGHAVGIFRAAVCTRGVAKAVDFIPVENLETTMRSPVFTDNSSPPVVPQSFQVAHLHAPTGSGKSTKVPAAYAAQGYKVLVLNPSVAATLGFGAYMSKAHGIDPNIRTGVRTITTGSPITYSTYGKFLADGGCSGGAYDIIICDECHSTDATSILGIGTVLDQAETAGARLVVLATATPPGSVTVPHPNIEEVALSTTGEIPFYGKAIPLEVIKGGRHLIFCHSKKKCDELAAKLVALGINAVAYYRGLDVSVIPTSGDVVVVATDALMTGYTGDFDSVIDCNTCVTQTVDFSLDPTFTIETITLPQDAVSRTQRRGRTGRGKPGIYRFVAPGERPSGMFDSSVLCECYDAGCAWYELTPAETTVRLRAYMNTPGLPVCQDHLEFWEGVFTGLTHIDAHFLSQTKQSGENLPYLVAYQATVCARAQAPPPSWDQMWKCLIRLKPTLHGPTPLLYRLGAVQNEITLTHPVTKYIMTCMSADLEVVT

NC(=O)c1ncn([C@@H]2O[C@H](CO)[C@@H](O)[C@H]2O)n1 [Ribavirin, 1-β-D-ribofuranosyl-1-1,2,4-triazole-3-carboxamide]
Serum levels of HCV-RNA (HCV; patients): does not lower
Patients in whom serum amino transferase levels are reduced to normal (HCV): 40%

Nn1c(-c2ccc([N+](=O)[O-])cc2)nc2ccccc2c1=O [Compound 1, 3-amino-2-(4-nitrophenyl)-4-(3H)-quinazolinone]
Cytotoxicity in relation to antiviral suppression [1]: independent of cytotoxicity
HCV RNA expression ([1]; 20 μM, 48 h, PCR with primers for 5′UTR and NS5B): inhibited HCV RNA expression significantly
Antiviral activity in combination with interferon-α (HCV RNA survival) [2]: synergistic effect

CCCC(=O)c1cc2c(c(O)c1C)C(=O)C(=O)c1c(O)cccc1-2 [Sch 68631]
Activity against HCV protease (HCV protease): micromolar activity

Source: patent publication US8809354B2, “3-amino-2-(4-nitrophenyl)-4-(3H)-quinazolinone or derivatives thereof for treating or preventing antiviral infections” (priority 2011, dated 2014)
